Results from ChEMBL document CHEMBL1154643, “Biaryl purine derivatives as potent antiproliferative agents: inhibitors of cyclin dependent kinases. Part I” (Bioorg Med Chem Lett, 2009).

How the values were obtained:
[1] = Antiproliferative activity against human HeLaS3 cells by sulforhodamine B assay; format: functional; conditions: HeLa S3
[2] = target: Cyclin-dependent kinase 2/cyclin A (Homo sapiens, UniProt P24941); test: Inhibition of recombinant CDK2/cyclin A; format: protein-complex assay
[3] = target: Cyclin-dependent kinase 2/cyclin E (Homo sapiens, UniProt P24941); test: Inhibition of recombinant CDK2/cyclin E; format: protein-complex assay

| SMILES | GI50 [1] | IC50 [2] | IC50 [3] |
| --- | --- | --- | --- |
| CC[C@H](CO)Nc1nc(NCc2ccc(-c3ccccc3)cc2)c2ncn(C(C)C)c2n1 | 0.4 µM | – | – |
| Cc1ccc(-c2ccc(CNc3nc(N[C@H]4CC[C@H](N)CC4)nc4c3ncn4C(C)C)cc2)cc1 | – | 0.4 µM | 0.2 µM |
| CC(C)n1cnc2c(NCc3ccc(-c4ccccc4)cc3)nc(N[C@H]3CC[C@H](NS(=O)(=O)C(F)(F)F)CC3)nc21 | – | > 5 µM | > 5 µM |
| Cc1ccc(-c2ccc(CNc3nc(N[C@H]4CC[C@H](N)CC4)nc4c3ncn4C(C)C)cc2)cc1C | – | 0.5 µM | 0.25 µM |
| CC(C)n1cnc2c(NCc3ccc(-c4ccccc4)cc3)nc(N[C@@H]3CCCC[C@H]3N)nc21 | – | 2 µM | 0.9 µM |
| CC(C)n1cnc2c(NCc3ccc(-c4ccccc4)cc3)nc(N3CCC(C(N)=O)CC3)nc21 | – | > 5 µM | > 5 µM |
| CC(C)n1cnc2c(NCc3ccc(-c4ccccc4)cc3)nc(N[C@H]3CC[C@H](NCC4CC4)CC3)nc21 | – | 0.9 µM | 0.3 µM |
| CC(C)n1cnc2c(NCc3ccc(-c4ccccc4)cc3)nc(NCCCN)nc21 | – | 3 µM | 0.4 µM |
| CC(=O)N[C@H]1CC[C@H](Nc2nc(NCc3ccc(-c4ccccc4)cc3)c3ncn(C(C)C)c3n2)CC1 | – | 0.5 µM | 0.3 µM |
| CC(C)n1cnc2c(NCc3ccc(-c4ccccc4)cc3)nc(N[C@@H]3CCCC[C@@H]3N)nc21 | – | 0.9 µM | 0.4 µM |
| CCN(CC)[C@H]1CC[C@H](Nc2nc(NCc3ccc(-c4ccccc4)cc3)c3ncn(C(C)C)c3n2)CC1 | – | 6 µM | 3 µM |
| CC(C)n1cnc2c(NCc3ccc(-c4ccccc4)cc3)nc(N[C@H]3CC[C@H](NC(=O)CC4CC4)CC3)nc21 | – | 0.6 µM | 0.3 µM |
| CC(C)n1cnc2c(NCc3ccc(-c4ccccc4)cc3)nc(N[C@H]3CC[C@H](O)CC3)nc21 | – | 0.4 µM | 0.4 µM |
| CC(C)n1cnc2c(NCc3ccc(-c4ccccc4)cc3)nc(NCCN)nc21 | – | 0.6 µM | 0.5 µM |
| CCCCN[C@H]1CC[C@H](Nc2nc(NCc3ccc(-c4ccccc4)cc3)c3ncn(C(C)C)c3n2)CC1 | – | 1 µM | 0.3 µM |
| CC(C)n1cnc2c(NCc3ccc(-c4ccccc4)cc3)nc(NC[C@H](C)NC(=O)OC(C)(C)C)nc21 | – | 1 µM | 0.8 µM |
| CC(C)n1cnc2c(NCc3ccc(-c4ccccc4)cc3)nc(N3CCC(N)C3)nc21 (centres undefined) | – | 3 µM | 3 µM |
| CCC(=O)N[C@H]1CC[C@H](Nc2nc(NCc3ccc(-c4ccccc4)cc3)c3ncn(C(C)C)c3n2)CC1 | – | 0.5 µM | 0.2 µM |
| CC(C)n1cnc2c(NCc3ccc(-c4ccccc4)cc3)nc(NC3CCCC(N)C3)nc21 (centres undefined) | – | 1 µM | 0.9 µM |

| SMILES | GI50 [1] | IC50 [2] | IC50 [3] |
| --- | --- | --- | --- |
| CC(C)n1cnc2c(NCc3ccc(-c4ccccc4)cc3)nc(NC3(CO)CCCC3)nc21 | – | 2 µM | 0.6 µM |
| Cn1cnc2c(NCc3ccc(-c4ccccc4)cc3)nc(N[C@H]3CC[C@H](N)CC3)nc21 | – | 1 µM | 0.8 µM |
| CC(C)n1cnc2c(NCc3ccc(-c4ccccc4)cc3)nc(NCC3CCNCC3)nc21 | – | 4 µM | 2.5 µM |
| CC(C)n1cnc2c(NCc3ccc(-c4ccccc4)cc3)nc(NC[C@H](C)N)nc21 | – | 2 µM | 0.9 µM |
| Cc1cc(C)cc(-c2ccc(CNc3nc(N[C@H]4CC[C@H](N)CC4)nc4c3ncn4C(C)C)cc2)c1 | – | 0.4 µM | 0.2 µM |
| CC(C)n1cnc2c(NCc3ccc(-c4ccccc4)cc3)nc(NCCCCN)nc21 | – | 3 µM | 3 µM |
| CC(C)n1cnc2c(NCc3ccc(-c4ccccc4)cc3)nc(N[C@H]3CC[C@H](NS(C)(=O)=O)CC3)nc21 | – | 0.5 µM | 0.2 µM |
| CC(C)n1cnc2c(NCc3ccc(-c4cccc(Cl)c4)cc3)nc(N[C@H]3CC[C@H](N)CC3)nc21 | – | 0.4 µM | 0.4 µM |
| COc1cccc(-c2ccc(CNc3nc(N[C@H]4CC[C@H](N)CC4)nc4c3ncn4C(C)C)cc2)c1 | – | 0.35 µM | 0.15 µM |
| CC(Nc1nc(N[C@H]2CC[C@H](N)CC2)nc2c1ncn2C(C)C)c1ccc(-c2ccccc2)cc1 (some centres undefined) | – | 5 µM | 4 µM |
| CCCN[C@H]1CC[C@H](Nc2nc(NCc3ccc(-c4ccccc4)cc3)c3ncn(C(C)C)c3n2)CC1 | – | 0.5 µM | 0.4 µM |
| N[C@H]1CC[C@H](Nc2nc(NCc3ccc(-c4ccccc4)cc3)c3ncn(C4CCCC4)c3n2)CC1 | – | 0.1 µM | 0.09 µM |
| CC(C)n1cnc2c(NCCc3ccc(-c4ccccc4)cc3)nc(N[C@H]3CC[C@H](N)CC3)nc21 | 5 µM | 1 µM | 0.8 µM |
| Cc1cccc(-c2ccc(CNc3nc(N[C@H]4CC[C@H](N)CC4)nc4c3ncn4C(C)C)cc2)c1 | – | 0.3 µM | 0.2 µM |
| CC(C)n1cnc2c(NCc3ccc(-c4ccccc4Cl)cc3)nc(N[C@H]3CC[C@H](N)CC3)nc21 | – | 1 µM | 0.6 µM |
| CC(C)n1cnc2c(NCc3ccc(-c4ccccc4)cc3)nc(N3CCC(CN)CC3)nc21 | – | 4 µM | 1 µM |
| CCN[C@H]1CC[C@H](Nc2nc(NCc3ccc(-c4ccccc4)cc3)c3ncn(C(C)C)c3n2)CC1 | – | 3 µM | 1 µM |
| Cn1cnc2c(NCc3ccccc3)nc(NCCO)nc21 [OLOMOUCINE] | 65 µM | – | – |
| CC[C@H](CO)Nc1nc(NCc2ccccc2)c2ncn(C(C)C)c2n1 [SELICICLIB] | 20 µM | – | – |
